{"source": "patent US20100136024A1", "about": "“Selective Inhibition of Histone Deacetylase 6 for Ocular Neuroprotection or for Treatment or Control of Glaucoma” (priority 2008, published 2010)", "key": {"HDAC6 [1]": {"molecular_target": "T1, HDAC6 (Homo sapiens, UniProt Q9UBN7)", "T1 sequence (Q9UBN7 1-1215)": "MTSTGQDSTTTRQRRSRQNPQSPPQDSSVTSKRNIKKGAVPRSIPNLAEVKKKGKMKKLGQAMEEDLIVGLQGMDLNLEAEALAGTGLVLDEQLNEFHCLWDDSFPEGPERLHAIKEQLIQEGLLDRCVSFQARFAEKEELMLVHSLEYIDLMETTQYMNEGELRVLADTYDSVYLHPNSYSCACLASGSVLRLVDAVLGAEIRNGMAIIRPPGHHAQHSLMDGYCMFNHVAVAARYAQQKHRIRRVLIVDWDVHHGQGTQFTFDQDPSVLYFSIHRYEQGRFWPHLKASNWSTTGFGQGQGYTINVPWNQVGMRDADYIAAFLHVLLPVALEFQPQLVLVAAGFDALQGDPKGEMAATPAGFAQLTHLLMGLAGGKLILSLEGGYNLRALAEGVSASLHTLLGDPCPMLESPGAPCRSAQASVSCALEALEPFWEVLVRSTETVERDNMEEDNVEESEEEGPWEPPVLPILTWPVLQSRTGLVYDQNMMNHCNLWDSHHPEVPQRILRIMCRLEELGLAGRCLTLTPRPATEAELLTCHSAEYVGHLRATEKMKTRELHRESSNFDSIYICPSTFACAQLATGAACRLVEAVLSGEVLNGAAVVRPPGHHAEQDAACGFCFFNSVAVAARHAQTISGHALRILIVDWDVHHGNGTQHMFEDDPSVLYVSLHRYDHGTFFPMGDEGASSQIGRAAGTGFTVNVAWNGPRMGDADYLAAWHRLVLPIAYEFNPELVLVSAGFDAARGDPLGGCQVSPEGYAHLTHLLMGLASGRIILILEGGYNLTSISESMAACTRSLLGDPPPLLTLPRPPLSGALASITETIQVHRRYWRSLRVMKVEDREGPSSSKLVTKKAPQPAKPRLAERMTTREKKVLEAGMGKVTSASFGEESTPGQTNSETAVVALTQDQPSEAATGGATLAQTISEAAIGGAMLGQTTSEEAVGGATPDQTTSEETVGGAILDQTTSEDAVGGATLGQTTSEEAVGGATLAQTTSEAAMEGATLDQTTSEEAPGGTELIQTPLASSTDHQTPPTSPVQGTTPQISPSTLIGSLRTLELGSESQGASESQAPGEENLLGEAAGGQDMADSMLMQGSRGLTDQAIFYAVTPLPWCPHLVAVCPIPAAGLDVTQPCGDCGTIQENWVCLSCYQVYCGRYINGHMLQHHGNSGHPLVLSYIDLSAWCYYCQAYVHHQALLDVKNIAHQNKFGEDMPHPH", "settings": "Itoh et al. enzyme assay; cited from earlier work"}, "A549 cells": {"system": "A549 cells", "settings": "cited from earlier work"}, "[2]": {"system": "histone acetylation, gene-expression patterns, cell-cycle progression", "settings": "Haggarty et al.; cited from earlier work"}, "[3]": {"system": "HDAC6-mediated α-tubulin deacetylation", "settings": "Haggarty et al.; cited from earlier work"}, "HDAC6 [4]": {"molecular_target": "T1, HDAC6", "assay": "HDAC6 inhibition and selectivity, '853 Patent", "type": "biochemical", "settings": "worked out from the IC50 of '853 Patent FIG. 3", "text": "Id., col. 114, lines 64-65. […] Id., col. 115, lines 37-38. […] Id., col. 137.\nThe '853 Patent provides, in its FIG. 3, the following data regarding the HDAC6 selective activity of compound 10, in comparison with other preferred but non-selective inhibitors of HDAC1 and HDAC6, i.e., compounds 8 and 9: […]"}, "HDAC1": {"molecular_target": "HDAC1 (Homo sapiens, UniProt Q13547)", "sequence (Q13547 whole entry, species assumed)": "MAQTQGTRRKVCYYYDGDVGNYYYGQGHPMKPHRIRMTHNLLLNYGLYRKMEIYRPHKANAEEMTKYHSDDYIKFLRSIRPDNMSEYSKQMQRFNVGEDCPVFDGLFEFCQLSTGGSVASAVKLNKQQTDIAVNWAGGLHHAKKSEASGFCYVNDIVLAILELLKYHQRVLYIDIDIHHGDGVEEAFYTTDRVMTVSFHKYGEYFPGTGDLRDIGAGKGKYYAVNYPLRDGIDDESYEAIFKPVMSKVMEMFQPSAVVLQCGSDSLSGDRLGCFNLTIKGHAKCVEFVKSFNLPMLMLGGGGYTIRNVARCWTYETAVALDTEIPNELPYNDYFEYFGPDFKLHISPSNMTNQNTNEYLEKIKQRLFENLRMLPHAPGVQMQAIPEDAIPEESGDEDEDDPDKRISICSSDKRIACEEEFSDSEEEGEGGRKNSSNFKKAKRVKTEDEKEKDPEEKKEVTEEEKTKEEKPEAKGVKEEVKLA", "settings": "'853 Patent FIG. 3; read-out: Inhibiting Concentration IC50 for HDAC1; cited from earlier work"}, "HDAC6 [5]": {"molecular_target": "T1, HDAC6", "settings": "'853 Patent FIG. 3; read-out: Inhibiting Concentration IC50 for HDAC6; cited from earlier work"}}, "note": "Like-named read-outs stand apart in the source and are kept apart here.", "data": [{"smiles": "CC(C)(C)OC(=O)N[C@@H](CCCCCS)C(=O)Nc1cnc2ccccc2c1", "note": "[Compound 15a]", "values": [{"measurement": "IC50", "setting": "HDAC6 [1]", "value": 32, "unit": "nM"}, {"measurement": "selectivity HDAC1/HDAC6 (HDAC1 IC50/HDAC6 IC50)", "setting": "HDAC6 [1]", "value": 1.6}, {"measurement": "selectivity HDAC4/HDAC6 (HDAC4 IC50/HDAC6 IC50)", "setting": "HDAC6 [1]", "value": 1.0}]}, {"smiles": "CC(C)(C)OC(=O)N[C@@H](CCCCCS)C(=O)NC1CCCCC1", "note": "[Compound 17a, (S)-tert-butyl 1-(cyclohexylamino)-7-mercapto-1-oxoheptan-2-ylcarbamate]", "values": [{"measurement": "selectivity HDAC1/HDAC6 (HDAC1 IC50/HDAC6 IC50)", "setting": "HDAC6 [1]", "value": 35}, {"measurement": "selectivity HDAC4/HDAC6 (HDAC4 IC50/HDAC6 IC50)", "setting": "HDAC6 [1]", "value": 32}]}, {"smiles": "CC(C)(C)OC(=O)N[C@@H](CCCCCS)C(=O)NC1CCCC1", "note": "[Compound 16a, (S)-tert-butyl 1-(cyclopentylamino)-7-mercapto-1-oxoheptan-2-ylcarbamate]", "values": [{"measurement": "selectivity HDAC1/HDAC6 (HDAC1 IC50/HDAC6 IC50)", "setting": "HDAC6 [1]", "value": 42}, {"measurement": "selectivity HDAC4/HDAC6 (HDAC4 IC50/HDAC6 IC50)", "setting": "HDAC6 [1]", "value": 36}]}, {"smiles": "CC(C)(C)NC(=O)[C@H](CCCCCS)NC(=O)OC(C)(C)C", "note": "[Compound 19a, (S)-tert-butyl 1-(tert-butylamino)-7-mercapto-1-oxoheptan-2-ylcarbamate]", "values": [{"measurement": "IC50", "setting": "HDAC6 [1]", "value": 71, "unit": "nM"}, {"measurement": "selectivity HDAC1/HDAC6 (HDAC1 IC50/HDAC6 IC50)", "setting": "HDAC6 [1]", "value": 42}, {"measurement": "selectivity HDAC4/HDAC6 (HDAC4 IC50/HDAC6 IC50)", "setting": "HDAC6 [1]", "value": 26}]}, {"smiles": "CC(C)(C)OC(=O)N[C@@H](CCCCCS)C(=O)Nc1cccc(-c2ccccc2)c1", "note": "[Compound 13a]", "values": [{"measurement": "IC50", "setting": "HDAC6 [1]", "value": 54, "unit": "nM"}, {"measurement": "selectivity HDAC1/HDAC6 (HDAC1 IC50/HDAC6 IC50)", "setting": "HDAC6 [1]", "value": 1.6}, {"measurement": "selectivity HDAC4/HDAC6 (HDAC4 IC50/HDAC6 IC50)", "setting": "HDAC6 [1]", "value": 1.0}]}, {"smiles": "CC(C)(C)OC(=O)N[C@@H](CCCCCS)C(=O)NC12CC3CC(CC(C3)C1)C2", "note": "[Compound 20a, (S)-tert-butyl 1-(adamant-1-ylamino)-7-mercapto-1-oxoheptan-2-ylcarbamate]", "values": [{"measurement": "IC50", "setting": "HDAC6 [1]", "value": 82, "unit": "nM"}, {"measurement": "selectivity HDAC1/HDAC6 (HDAC1 IC50/HDAC6 IC50)", "setting": "HDAC6 [1]", "value": 46}, {"measurement": "selectivity HDAC4/HDAC6 (HDAC4 IC50/HDAC6 IC50)", "setting": "HDAC6 [1]", "value": 51}]}, {"smiles": "CC(C)(C)OC(=O)N[C@@H](CCCCCS)C(=O)NC1CCCCCC1", "note": "[Compound 18a, (S)-tert-butyl 1-(cycloheptylamino)-7-mercapto-1-oxoheptan-2-ylcarbamate]", "values": [{"measurement": "selectivity HDAC1/HDAC6 (HDAC1 IC50/HDAC6 IC50)", "setting": "HDAC6 [1]", "value": 39}, {"measurement": "selectivity HDAC4/HDAC6 (HDAC4 IC50/HDAC6 IC50)", "setting": "HDAC6 [1]", "value": 37}]}, {"smiles": "O=C(CCCCCCC(=O)Nc1ccc([C@H]2O[C@@H](CSc3nc(-c4ccccc4)c(-c4ccccc4)o3)C[C@@H](c3ccc(CO)cc3)O2)cc1)NO", "note": "[tubacin]", "values": [{"measurement": "effect on histone (lysine) acetylation", "setting": "A549 cells", "value": "no effect"}, {"measurement": "concentration at which α-tubulin activity (acetylation) is increased", "setting": "A549 cells; concentrations as low as", "value": "≤ 125", "unit": "nM"}, {"measurement": "effect on level of histone acetylation, gene-expression patterns, or cell-cycle progression", "setting": "[2]", "value": "does not affect"}, {"measurement": "inhibition of α-tubulin deacetylation", "setting": "[3]", "value": "selective and reversible inhibitor"}]}, {"smiles": "O=C(CCCC(=O)NCc1ccccc1)NO", "note": "[Compound 10]", "values": [{"measurement": "times more selective for HDAC6 than HDAC1", "setting": "HDAC6 [4]", "value": "about four"}, {"measurement": "IC50", "setting": "HDAC1", "value": "1500 ± 500", "unit": "nM"}, {"measurement": "IC50", "setting": "HDAC6 [5]", "value": "380 ± 40", "unit": "nM"}]}]}
